# System: Colletotrichum gloeosporioides (CBS272.51)
# Assay: Agar plug bio-assay on YME agar, fungal colony radius towards Streptomyces or natamycin plug
# Format: cell-based
# Settings: Table 7; 10 ppm natamycin in agar plug (5% w/w methanol), 7 days at 28° C.
# Experimental: Three fungal plant pathogens were tested against the selected S. natalensis strains: Fusarium oxysporum f.sp. lycopersici (CBS414.90), Colletotrichum gloeosporioides (CBS272.51) and Alternaria alternata (CBS103.33). Fusarium oxysporum f.sp. lycopersici is a soil borne fungus causing yield loss in e.g. tomato crops (Fusarium Wilt). Colletotrichum gloeosporioides causes e.g. anthracnose, a plant disease recognizable by dark brown lesions on leaves and fruits. Alternaria alternata is a worldwide occurring saprophyte that can cause phytopathogenic reactions in economically important host plants. The selected S. natalensis strains were tested against these fungal plant pathogens as described below.
# Frozen vials (glycerol stocks) or freeze dried tubes from the selected S. natalensis strains were transferred to 100 ml baffled Erlenmeyer flasks containing 20 ml of Yeast Malt Extract broth (YME). […]
# The bio-assay was done as follows. […] After 7 days the radius of the fungal colony was measured in the direction of the opposite agar plug (Streptomyces sample). […] The inhibition zone (in percentage) was calculated by using the following formula: 100% * (r0-r1)/r0, wherein r0is the radius (in mm, corrected for the plug radius) of the fungal colony from the control sample and wherein r1 is the radius (in mm, corrected for the plug radius) of the fungal colony from the Streptomyces inhibited sample. […]
smiles,measurement,value
"C[C@@H]1C/C=C/C=C/C=C/C=C/[C@H](O[C@@H]2O[C@H](C)[C@@H](O)[C@H](N)[C@@H]2O)C[C@@H]2O[C@](O)(C[C@@H](O)C[C@H]3O[C@@H]3/C=C/C(=O)O1)C[C@H](O)[C@H]2C(=O)O [Natamycin, natamycin]",Average inhibition zone (in %),not as high

# Source: patent publication US20160128336A1, “MICROBIAL AGRICULTURE” (DSM IP ASSETS B.V., priority 2013, published 2016)
